Assay results published in patent publication US7074789B2, “Kinase inhibitors” (Amgen Inc., priority 1999, dated 2006).

Tests used:
Format in all cases: biochemical
Lck = target: T1, Lck (Homo sapiens, UniProt P06239); test: Kinase inhibition assay (33P transfer), Lck; settings: Table 3; read-out: Lck-1
T1 construct: Kinases are expressed as either kinase domains or full length constructs; made in house
Procedure, shortened: (§1)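 Filterless plate radiometric format: immobilized poly(Glu,Tyr) 4:1 or poly(Arg,Ser) 3:1, 33P-labelled ATP, tagged recombinant kinase (some with regulatory partners). Incorporated label counted after phosphoric acid wash.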

Zap-70 = target: T2, Zap-70 (Homo sapiens, UniProt P43403); test: Kinase inhibition assay (33P transfer), Zap-70; settings: Table 3; read-out: Zap-1
T2 construct: Kinases are expressed as either kinase domains or full length constructs; made in house
T2 sequence (P43403 1-619): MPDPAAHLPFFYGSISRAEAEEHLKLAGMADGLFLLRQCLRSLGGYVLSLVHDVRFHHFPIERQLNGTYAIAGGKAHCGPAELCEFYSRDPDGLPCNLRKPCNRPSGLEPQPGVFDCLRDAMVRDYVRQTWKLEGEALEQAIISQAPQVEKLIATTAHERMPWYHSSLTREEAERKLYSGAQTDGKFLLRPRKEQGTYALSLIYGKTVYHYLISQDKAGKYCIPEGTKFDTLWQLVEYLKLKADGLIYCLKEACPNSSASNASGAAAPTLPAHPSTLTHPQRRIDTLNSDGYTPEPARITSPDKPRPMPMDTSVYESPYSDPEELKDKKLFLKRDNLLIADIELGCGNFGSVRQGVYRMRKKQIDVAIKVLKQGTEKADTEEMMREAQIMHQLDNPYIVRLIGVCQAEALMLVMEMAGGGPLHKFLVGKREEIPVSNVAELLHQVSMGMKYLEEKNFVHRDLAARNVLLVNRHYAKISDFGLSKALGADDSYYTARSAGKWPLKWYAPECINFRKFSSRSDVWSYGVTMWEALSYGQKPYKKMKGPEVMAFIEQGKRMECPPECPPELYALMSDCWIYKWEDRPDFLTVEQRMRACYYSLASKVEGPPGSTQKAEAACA
Procedure, shortened: as §1

Itk = target: T3, Itk (Homo sapiens, UniProt Q08881); test: Kinase inhibition assay (33P transfer), Itk; settings: Table 3; read-out: Itk-1
T3 construct: Kinases are expressed as either kinase domains or full length constructs; made in house
T3 sequence (Q08881 1-620): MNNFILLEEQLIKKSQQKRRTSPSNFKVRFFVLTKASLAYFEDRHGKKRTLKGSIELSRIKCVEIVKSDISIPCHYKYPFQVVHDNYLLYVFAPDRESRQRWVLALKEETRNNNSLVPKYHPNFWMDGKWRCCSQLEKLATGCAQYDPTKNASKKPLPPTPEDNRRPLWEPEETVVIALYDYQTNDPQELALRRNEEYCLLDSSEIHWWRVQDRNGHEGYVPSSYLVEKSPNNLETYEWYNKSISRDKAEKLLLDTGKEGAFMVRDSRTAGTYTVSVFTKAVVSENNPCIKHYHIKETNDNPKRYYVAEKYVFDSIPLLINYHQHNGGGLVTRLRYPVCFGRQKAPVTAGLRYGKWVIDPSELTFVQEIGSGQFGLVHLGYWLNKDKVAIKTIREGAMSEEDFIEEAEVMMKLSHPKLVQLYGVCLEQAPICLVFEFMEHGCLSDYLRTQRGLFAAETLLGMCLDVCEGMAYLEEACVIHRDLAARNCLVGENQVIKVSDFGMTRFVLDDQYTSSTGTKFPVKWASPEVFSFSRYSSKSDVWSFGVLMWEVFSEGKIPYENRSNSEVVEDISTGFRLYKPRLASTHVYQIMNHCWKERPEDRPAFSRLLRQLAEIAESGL
Procedure, shortened: (§2)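 Each enzyme, purified to near homogeneity by affinity chromatography, was incubated with ATP carrying 33P and a substrate polymer fixed to the plate. Unbound label was removed with dilute phosphoric acid (0.5%) before adding scintillant and counting. Potency is given as the compound level cutting label uptake by 50%.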

EGFR = target: T4, EGFR (Homo sapiens, UniProt P00533); test: Kinase inhibition assay (33P transfer), EGFR; settings: Table 2, kinase inhibition class; read-out: EGFR-1
T4 construct: Kinases are expressed as either kinase domains or full length constructs; made in house
Procedure, shortened: as §2

Kdr = target: T5, Kdr (Homo sapiens, UniProt P35968); test: Kinase inhibition assay (33P transfer), Kdr; settings: Table 3; read-out: KDR-1
T5 construct: Kinases are expressed as either kinase domains or full length constructs; made in house
Procedure, shortened: as §1

Tek = target: T6, Tek (Homo sapiens, UniProt Q02763); test: Kinase inhibition assay (33P transfer), Tek; settings: read-out: Tek-1
T6 construct: Kinases are expressed as either kinase domains or full length constructs; made in house
Procedure, shortened: as §2

c-Met = target: T7, c-Met (Homo sapiens, UniProt P08581); test: Kinase inhibition assay (33P transfer), c-Met; settings: Table 2, kinase inhibition class; read-out: Met-1
T7 construct: Kinases are expressed as either kinase domains or full length constructs; made in house
Procedure, shortened: as §2

AKT = target: T8, AKT (Homo sapiens, UniProt Q9Y243); test: Kinase inhibition assay (33P transfer), AKT; settings: Table 2, kinase inhibition class; read-out: AKT3-1
T8 construct: Kinases are expressed as either kinase domains or full length constructs; made in house
Procedure, shortened: as §1

IGFR-1 = target: T9, IGFR-1 (Homo sapiens, UniProt P08069); test: Kinase inhibition assay (33P transfer), IGFR-1; settings: Table 2, kinase inhibition class
T9 construct: Kinases are expressed as either kinase domains or full length constructs; made in house

EPHB4 = target: T10, EPHB4 (Homo sapiens, UniProt P54760); test: Kinase inhibition assay (33P transfer), EPHB4; settings: read-out: EPHB4-1
T10 construct: Kinases are expressed as either kinase domains or full length constructs; made in house
T10 sequence (P54760 16-987): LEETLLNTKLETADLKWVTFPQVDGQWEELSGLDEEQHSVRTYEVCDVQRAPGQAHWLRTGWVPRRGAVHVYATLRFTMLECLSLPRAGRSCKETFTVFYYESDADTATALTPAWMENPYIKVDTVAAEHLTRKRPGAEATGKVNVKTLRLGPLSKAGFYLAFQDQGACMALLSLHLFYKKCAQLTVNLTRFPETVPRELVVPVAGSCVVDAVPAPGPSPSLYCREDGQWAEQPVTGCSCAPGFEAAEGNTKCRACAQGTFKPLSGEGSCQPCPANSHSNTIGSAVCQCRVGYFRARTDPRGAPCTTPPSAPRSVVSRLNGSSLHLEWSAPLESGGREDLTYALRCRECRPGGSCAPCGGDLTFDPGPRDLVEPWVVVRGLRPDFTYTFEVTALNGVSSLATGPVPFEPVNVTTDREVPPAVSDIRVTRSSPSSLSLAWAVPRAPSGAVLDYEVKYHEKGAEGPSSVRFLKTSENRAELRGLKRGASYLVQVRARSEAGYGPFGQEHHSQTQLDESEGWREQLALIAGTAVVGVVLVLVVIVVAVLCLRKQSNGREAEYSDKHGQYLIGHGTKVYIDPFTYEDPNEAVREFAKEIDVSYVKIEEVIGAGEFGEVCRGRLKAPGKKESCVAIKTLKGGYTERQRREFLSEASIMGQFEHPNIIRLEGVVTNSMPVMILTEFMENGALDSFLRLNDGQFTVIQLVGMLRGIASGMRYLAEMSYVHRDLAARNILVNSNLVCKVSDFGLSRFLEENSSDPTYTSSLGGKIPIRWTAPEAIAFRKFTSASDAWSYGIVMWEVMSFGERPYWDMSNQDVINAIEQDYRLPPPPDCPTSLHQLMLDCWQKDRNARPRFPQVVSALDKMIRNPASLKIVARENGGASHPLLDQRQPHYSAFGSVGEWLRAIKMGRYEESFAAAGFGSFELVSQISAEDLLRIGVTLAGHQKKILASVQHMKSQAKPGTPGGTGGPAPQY

T5 sequence (P35968 20-1356, species assumed): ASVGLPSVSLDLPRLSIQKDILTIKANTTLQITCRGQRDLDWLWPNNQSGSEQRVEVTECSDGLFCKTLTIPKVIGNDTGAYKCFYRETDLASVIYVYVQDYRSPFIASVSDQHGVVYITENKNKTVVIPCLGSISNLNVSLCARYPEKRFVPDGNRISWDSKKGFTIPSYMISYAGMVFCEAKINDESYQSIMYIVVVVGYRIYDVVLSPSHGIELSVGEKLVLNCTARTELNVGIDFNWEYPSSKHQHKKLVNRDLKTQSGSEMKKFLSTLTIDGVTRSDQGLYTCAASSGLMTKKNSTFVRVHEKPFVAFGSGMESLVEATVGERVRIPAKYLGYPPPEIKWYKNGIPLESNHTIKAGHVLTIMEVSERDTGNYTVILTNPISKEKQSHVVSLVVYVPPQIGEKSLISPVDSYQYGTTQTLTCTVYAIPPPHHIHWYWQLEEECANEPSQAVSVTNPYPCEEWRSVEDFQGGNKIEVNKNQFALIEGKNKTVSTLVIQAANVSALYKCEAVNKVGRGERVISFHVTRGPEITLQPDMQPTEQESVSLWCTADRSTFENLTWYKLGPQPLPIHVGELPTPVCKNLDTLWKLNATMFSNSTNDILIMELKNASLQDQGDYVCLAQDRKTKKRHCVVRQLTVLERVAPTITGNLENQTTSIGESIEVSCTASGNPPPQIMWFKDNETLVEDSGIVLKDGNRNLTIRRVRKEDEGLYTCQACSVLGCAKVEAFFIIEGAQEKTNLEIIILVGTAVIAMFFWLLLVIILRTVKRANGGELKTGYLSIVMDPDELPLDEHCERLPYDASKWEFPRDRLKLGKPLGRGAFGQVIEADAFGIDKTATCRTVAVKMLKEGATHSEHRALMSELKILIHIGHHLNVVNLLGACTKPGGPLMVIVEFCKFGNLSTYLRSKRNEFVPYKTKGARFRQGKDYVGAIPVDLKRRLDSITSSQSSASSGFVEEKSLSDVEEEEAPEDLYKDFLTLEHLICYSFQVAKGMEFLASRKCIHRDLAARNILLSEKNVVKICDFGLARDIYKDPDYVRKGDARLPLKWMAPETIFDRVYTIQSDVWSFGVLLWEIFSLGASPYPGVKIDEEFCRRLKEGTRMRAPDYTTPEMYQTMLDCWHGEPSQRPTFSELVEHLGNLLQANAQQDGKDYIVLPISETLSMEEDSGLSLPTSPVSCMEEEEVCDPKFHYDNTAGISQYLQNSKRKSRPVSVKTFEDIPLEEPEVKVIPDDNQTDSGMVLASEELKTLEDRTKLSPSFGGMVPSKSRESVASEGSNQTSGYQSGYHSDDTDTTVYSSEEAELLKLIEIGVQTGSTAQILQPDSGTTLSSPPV
T6 sequence (Q02763 23-1124, species assumed): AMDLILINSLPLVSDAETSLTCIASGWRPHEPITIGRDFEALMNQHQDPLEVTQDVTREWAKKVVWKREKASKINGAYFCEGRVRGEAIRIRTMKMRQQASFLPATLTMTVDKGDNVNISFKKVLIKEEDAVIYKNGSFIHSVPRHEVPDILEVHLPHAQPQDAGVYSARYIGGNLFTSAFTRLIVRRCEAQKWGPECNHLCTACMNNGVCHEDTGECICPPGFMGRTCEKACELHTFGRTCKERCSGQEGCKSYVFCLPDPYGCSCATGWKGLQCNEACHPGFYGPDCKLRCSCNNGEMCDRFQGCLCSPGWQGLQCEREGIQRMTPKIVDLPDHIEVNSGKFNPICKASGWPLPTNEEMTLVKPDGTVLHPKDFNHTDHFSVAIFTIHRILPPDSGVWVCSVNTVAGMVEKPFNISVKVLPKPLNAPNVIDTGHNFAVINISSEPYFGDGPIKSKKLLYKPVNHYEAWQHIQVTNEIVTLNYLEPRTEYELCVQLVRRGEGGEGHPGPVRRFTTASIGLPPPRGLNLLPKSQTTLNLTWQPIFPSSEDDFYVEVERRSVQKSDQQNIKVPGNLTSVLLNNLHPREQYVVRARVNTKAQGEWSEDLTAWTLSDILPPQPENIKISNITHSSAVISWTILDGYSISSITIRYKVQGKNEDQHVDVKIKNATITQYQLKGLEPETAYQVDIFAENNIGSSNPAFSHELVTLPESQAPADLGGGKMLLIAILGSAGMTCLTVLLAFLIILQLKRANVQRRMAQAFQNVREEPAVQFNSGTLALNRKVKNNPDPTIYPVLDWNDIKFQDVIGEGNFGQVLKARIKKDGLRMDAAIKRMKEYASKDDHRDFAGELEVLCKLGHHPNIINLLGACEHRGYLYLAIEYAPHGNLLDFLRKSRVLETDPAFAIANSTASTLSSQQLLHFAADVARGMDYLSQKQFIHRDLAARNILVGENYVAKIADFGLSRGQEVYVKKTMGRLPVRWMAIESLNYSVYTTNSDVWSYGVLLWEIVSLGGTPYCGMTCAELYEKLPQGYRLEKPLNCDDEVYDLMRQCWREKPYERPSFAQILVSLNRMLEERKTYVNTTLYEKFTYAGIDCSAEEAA
T7 sequence (P08581 25-1390): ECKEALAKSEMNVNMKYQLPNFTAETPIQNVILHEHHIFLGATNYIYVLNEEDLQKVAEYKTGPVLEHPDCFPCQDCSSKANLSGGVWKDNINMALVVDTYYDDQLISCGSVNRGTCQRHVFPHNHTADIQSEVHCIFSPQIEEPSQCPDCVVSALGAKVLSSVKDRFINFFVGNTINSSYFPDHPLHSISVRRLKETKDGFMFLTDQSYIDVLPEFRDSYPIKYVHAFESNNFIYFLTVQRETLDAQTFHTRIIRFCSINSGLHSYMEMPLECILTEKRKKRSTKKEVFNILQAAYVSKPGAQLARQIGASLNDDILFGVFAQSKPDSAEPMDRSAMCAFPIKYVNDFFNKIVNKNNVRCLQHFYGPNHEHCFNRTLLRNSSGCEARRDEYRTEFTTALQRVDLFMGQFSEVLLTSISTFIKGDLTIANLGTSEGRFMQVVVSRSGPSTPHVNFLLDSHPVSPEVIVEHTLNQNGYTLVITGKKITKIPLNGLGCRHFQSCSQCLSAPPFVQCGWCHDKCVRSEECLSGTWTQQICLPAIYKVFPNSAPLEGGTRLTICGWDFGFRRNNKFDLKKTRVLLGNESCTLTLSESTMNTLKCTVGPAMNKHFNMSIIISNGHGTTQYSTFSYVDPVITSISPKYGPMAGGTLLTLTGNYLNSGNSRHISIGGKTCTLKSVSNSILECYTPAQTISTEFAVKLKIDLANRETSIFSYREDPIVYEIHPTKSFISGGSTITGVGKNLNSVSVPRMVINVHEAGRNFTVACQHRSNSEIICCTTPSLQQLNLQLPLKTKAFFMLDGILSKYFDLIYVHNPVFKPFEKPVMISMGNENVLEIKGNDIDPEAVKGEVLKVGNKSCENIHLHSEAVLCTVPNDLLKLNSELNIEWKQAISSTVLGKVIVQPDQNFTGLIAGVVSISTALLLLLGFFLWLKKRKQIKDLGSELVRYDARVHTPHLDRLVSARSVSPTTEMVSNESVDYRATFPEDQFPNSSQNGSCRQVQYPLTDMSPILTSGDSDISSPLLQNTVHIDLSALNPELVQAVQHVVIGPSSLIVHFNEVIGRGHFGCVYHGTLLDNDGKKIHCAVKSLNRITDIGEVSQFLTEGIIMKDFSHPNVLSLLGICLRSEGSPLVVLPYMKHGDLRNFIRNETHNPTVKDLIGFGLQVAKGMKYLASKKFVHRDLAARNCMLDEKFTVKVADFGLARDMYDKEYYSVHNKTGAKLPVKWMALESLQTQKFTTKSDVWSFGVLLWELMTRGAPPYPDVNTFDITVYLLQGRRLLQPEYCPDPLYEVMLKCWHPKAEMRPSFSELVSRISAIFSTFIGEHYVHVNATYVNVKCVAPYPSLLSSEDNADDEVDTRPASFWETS
T8 sequence (Q9Y243 whole entry, the tested form may be a part): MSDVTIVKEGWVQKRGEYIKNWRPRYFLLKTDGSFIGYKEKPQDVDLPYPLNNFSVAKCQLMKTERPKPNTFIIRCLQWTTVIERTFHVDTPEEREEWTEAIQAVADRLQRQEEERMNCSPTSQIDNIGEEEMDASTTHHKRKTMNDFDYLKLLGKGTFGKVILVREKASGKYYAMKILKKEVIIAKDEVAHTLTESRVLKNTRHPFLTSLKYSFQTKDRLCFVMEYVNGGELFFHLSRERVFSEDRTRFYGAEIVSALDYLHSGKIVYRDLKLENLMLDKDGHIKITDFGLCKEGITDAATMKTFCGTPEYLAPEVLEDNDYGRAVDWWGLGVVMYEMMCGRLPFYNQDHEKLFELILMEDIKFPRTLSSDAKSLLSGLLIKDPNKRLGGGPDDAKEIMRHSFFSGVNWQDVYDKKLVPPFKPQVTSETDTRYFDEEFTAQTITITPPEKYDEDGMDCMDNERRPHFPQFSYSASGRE
T1 sequence (P06239 whole entry, species assumed, the tested form may be a part): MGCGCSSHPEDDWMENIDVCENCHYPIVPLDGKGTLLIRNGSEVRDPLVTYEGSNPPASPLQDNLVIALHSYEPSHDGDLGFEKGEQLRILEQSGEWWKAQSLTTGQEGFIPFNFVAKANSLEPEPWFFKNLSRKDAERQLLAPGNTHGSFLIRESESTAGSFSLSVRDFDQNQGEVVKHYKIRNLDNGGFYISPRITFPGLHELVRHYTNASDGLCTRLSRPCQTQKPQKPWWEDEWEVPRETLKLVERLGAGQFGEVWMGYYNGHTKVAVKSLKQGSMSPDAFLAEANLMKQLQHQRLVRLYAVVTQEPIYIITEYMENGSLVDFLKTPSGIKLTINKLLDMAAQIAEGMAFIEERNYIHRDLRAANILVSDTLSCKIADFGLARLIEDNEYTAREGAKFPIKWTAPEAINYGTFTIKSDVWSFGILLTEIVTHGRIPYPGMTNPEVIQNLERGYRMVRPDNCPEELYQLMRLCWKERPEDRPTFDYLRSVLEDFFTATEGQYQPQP

SMILES	IC50 (Lck)	IC50 (Zap-70)	IC50 (Itk)	IC50 (EGFR)	IC50 (Kdr)	IC50 (Tek)	IC50 (c-Met)	IC50 (AKT)	IC50 (IGFR-1)	IC50 (EPHB4)
COc1cc(Nc2ncnc(-c3cc4ccccc4s3)n2)cc(OC)c1OC [Compound 218]	> 11.4 µM	> 11.4 µM	> 11.4 µM	> 11.4 µM	> 11.4 µM	> 11.4 µM	> 11.4 µM	> 11.4 µM	> 11.4 µM	> 11.4 µM
COc1cc(Nc2ncnc(-c3cccc(Cl)c3)n2)cc(OC)c1OC [Compound 220]	> 12.1 µM	> 12.1 µM	> 12.1 µM	> 12.1 µM	> 12.1 µM	> 12.1 µM	> 12.1 µM	> 12.1 µM	> 12.1 µM	> 12.1 µM
COc1cc(Nc2ncnc(-c3ccc(F)cc3)n2)cc(OC)c1OC [Compound 222]	> 12.6 µM	> 12.6 µM	> 12.6 µM	> 12.6 µM	9.82 to 12.6 µM	> 12.6 µM	> 12.6 µM	> 12.6 µM	> 12.6 µM	> 12.6 µM
COc1cc(Nc2ncnc(-c3ccsc3)n2)cc(OC)c1OC [Compound 226]	10.2 to 13.1 µM	10.2 to 13.1 µM	> 13.1 µM	> 13.1 µM	6.97 to 10.2 µM	10.2 to 13.1 µM	> 13.1 µM	> 13.1 µM	> 13.1 µM	> 13.1 µM
COc1cc(Nc2ncnc(Nc3ccc(S(=O)(=O)NC(C)=O)cc3)n2)cc(OC)c1OC [Compound 255]	> 9.48 µM	> 9.48 µM	> 9.48 µM	> 9.48 µM	< 0.843 µM	> 9.48 µM	> 9.48 µM	> 9.48 µM	> 9.48 µM	> 9.48 µM
COc1cc(Nc2ncnc(Nc3c(C)n(C)n(-c4ccccc4)c3=O)n2)cc(OC)c1OC [Compound 256]	> 9.71 µM	> 9.71 µM	> 9.71 µM	> 9.71 µM	7.55 to 9.71 µM	> 9.71 µM	> 9.71 µM	> 9.71 µM	> 9.71 µM	> 9.71 µM
COc1cc(Nc2ncnc(N(CC(=O)OC(C)(C)C)c3ccc(Cl)cc3)n2)cc(OC)c1OC [Compound 291]	4.78 to 6.97 µM	> 8.96 µM	> 8.96 µM	0.797 to 4.78 µM	4.78 to 6.97 µM	6.97 to 8.96 µM	> 8.96 µM	> 8.96 µM	> 8.96 µM	6.97 to 8.96 µM
CCOc1ccc(Nc2ncnc(-n3c(N)nc4ccccc43)n2)cc1OCC [Compound 299]	8.94 to 11.5 µM	1.02 to 6.13 µM	> 11.5 µM	6.13 to 8.94 µM	1.02 to 6.13 µM	6.13 to 8.94 µM	1.02 to 6.13 µM	1.02 to 6.13 µM	6.13 to 8.94 µM	> 11.5 µM
COc1cc(Nc2ncnc(Nc3ccc(F)cc3)n2)cc(OC)c1OC [Compound 303]	1.08 to 6.46 µM	> 12.1 µM	> 12.1 µM	1.08 to 6.46 µM	1.08 to 6.46 µM	1.08 to 6.46 µM	> 12.1 µM	> 12.1 µM	1.08 to 6.46 µM	9.42 to 12.1 µM
COc1cc(Nc2ncnc(N(CC(=O)OC(C)(C)C)c3ccc4c(c3)OCO4)n2)cc(OC)c1OC [Compound 309]	6.84 to 8.8 µM	> 8.8 µM	> 8.8 µM	4.69 to 6.84 µM	6.84 to 8.8 µM	> 8.8 µM	> 8.8 µM	> 8.8 µM	> 8.8 µM	> 8.8 µM
COc1ccc(Nc2ncnc(N(CC(=O)OC(C)(C)C)c3ccc4c(c3)OCO4)n2)cc1OC [Compound 310]	0.831 to 4.98 µM	> 9.35 µM	> 9.35 µM	0.831 to 4.98 µM	7.27 to 9.35 µM	> 9.35 µM	> 9.35 µM	> 9.35 µM	0.831 to 4.98 µM	> 9.35 µM
COc1cc(OC)cc(-c2nnc(Nc3ncnc(Nc4cc(OC)c(OC)c(OC)c4)n3)[nH]2)c1 [Compound 312]	> 9.37 µM	> 9.37 µM	> 9.37 µM	> 9.37 µM	> 9.37 µM	> 9.37 µM	> 9.37 µM	> 9.37 µM	> 9.37 µM	> 9.37 µM
COc1cc(Nc2ncnc(Nc3nc4ccc(F)cc4s3)n2)cc(OC)c1OC [Compound 317]	0.934 to 5.6 µM	> 10.5 µM	> 10.5 µM	> 10.5 µM	0.934 to 5.6 µM	8.17 to 10.5 µM	0.934 to 5.6 µM	> 10.5 µM	0.934 to 5.6 µM	5.6 to 8.17 µM
COCCOc1ccc(Nc2ncnc(Nc3ccc(C)c(F)c3)n2)cc1OCCOC [Compound 322]	> 10.1 µM	> 10.1 µM	> 10.1 µM	> 10.1 µM	0.902 to 5.41 µM	> 10.1 µM	> 10.1 µM	> 10.1 µM	> 10.1 µM	> 10.1 µM
COC(=O)c1ccc(Nc2ncnc(Nc3cc(-c4ccco4)n[nH]3)n2)cc1 [Compound 366]	6.36 to 9.27 µM	6.36 to 9.27 µM	> 11.9 µM	> 11.9 µM	> 11.9 µM	> 11.9 µM	> 11.9 µM	> 11.9 µM	1.06 to 6.36 µM	1.06 to 6.36 µM
